Here are results for 19 compounds from article PMC6112376, “Comprehensive Analyses and Prioritization of Tox21 10K Chemicals Affecting Mitochondrial Function by in-Depth Mechanistic Studies” (Environmental Health Perspectives, 2018).

Series [1] deals with HepG2 cells. Kind of series: cells. To be noted: Homo sapiens; for IC50: HepG2, read-out: MMP assays IC50 (µM) HepG2; for Emax: HepG2, read-out: MMP assays efficacy (%) HepG2.
The subject of series [2] is HepG2 cells. Conditions: cited from earlier work.
The test system of series [3] is rat primary hepatocytes.
Series [4] relates to rat primary hepatocytes. Briefly: MMP assay in rat primary hepatocytes. To be noted: for IC50: Rattus norvegicus, Hepatocyte, read-out: MMP assays IC50 (µM) Rat Hepatocytes.
Setting [5] is: read-out: MMP assays IC50 (µM) qHTS-HepG2.
The mark [6] stands for this setting: read-out: MMP assays IC50 (µM), qHTS-HepG2.

Like-named read-outs stand apart in the source and are kept apart here.

The term IC50 denotes the concentration needed to halve the response being measured.

Consider `BrC1CCC(Br)C(Br)CCC(Br)C(Br)CCC1Br` (stereo not drawn) [1,2,5,6,9,10-Hexabromocyclododecane], for which the IC50 in the series on HepG2 cells [1] is 6.31 µM; with HepG2 cells [2] (setting [5]) it was 6.93 ± 1.95 µM; in the series with rat primary hepatocytes [4] it was 32 ± 16.5 µM. Further, the Emax with HepG2 cells [1] is 105%. Besides, the “MMP assays efficacy (%) qHTS-HepG2” value in the series with HepG2 cells [2] is recorded as -96±6%. Further, the “MMP assays efficacy (%) Rat Hepatocytes” value in the series on rat primary hepatocytes [3] is recorded as -89±40%.

With `ClC(Cl)=C(c1ccc(Cl)cc1)c1ccc(Cl)cc1` [p,p'-DDE], in the series with HepG2 cells [1], the IC50 was determined as 44.7 µM and the Emax was determined as 105%. Moreover, in the series with HepG2 cells [2], the “MMP assays efficacy (%) qHTS-HepG2” value is given as -96±25%. Further, the half-maximal inhibitory concentration (IC50) in the series on HepG2 cells [2] (setting [6]) was 25.6 ± 1.71 µM. The “MMP assays efficacy (%) Rat Hepatocytes” value in the series on rat primary hepatocytes [3] is “inactive”. The “MMP assays IC50 (µM) Rat Hepatocytes” value in the series with rat primary hepatocytes [4] was “inactive”.

With `COC(=O)Nc1cccc(OC(=O)Nc2cccc(C)c2)c1` [Phenmedipham], the IC50 with HepG2 cells [1] was 7.08 µM; with HepG2 cells [2] (setting [6]), 4.41 ± 2.02 µM; in the series on rat primary hepatocytes [4] it was 19.4 ± 9.11 µM. Further, the Emax with HepG2 cells [1] was determined as 107%. The “MMP assays efficacy (%) qHTS-HepG2” value in the series with HepG2 cells [2] is recorded as -101±10%. In the series with rat primary hepatocytes [3], the “MMP assays efficacy (%) Rat Hepatocytes” value was -95±20%.

For `CS(=O)(=O)c1ccc(C(=O)C2C(=O)CCCC2=O)c([N+](=O)[O-])c1` [Mesotrione], in the series with HepG2 cells [1], the IC50 was found to be 39.8 µM and the Emax was 72%. For the same compound, the “MMP assays efficacy (%) qHTS-HepG2” value in the series with HepG2 cells [2] is recorded as -75±17%. Also, the IC50 with HepG2 cells [2] (setting [6]) was 18 ± 12 µM. Moreover, the “MMP assays efficacy (%) Rat Hepatocytes” value in the series on rat primary hepatocytes [3] is “inactive”. In the series with rat primary hepatocytes [4], the “MMP assays IC50 (µM) Rat Hepatocytes” value is “inactive”.

With `COc1ccc(C(c2ccc(OC)cc2)C(Cl)(Cl)Cl)cc1` [Methoxychlor], the figures for the concentration for half-maximal inhibition (IC50) with HepG2 cells [1], in the series on HepG2 cells [2] (setting [6]) and in the series with rat primary hepatocytes [4] were 28.2 µM, 26.3 ± 8.69 µM and 27.7 ± 11 µM, respectively. The Emax in the series with HepG2 cells [1] turned out to be 88%. Further, the “MMP assays efficacy (%) qHTS-HepG2” value in the series on HepG2 cells [2] was -101±17%. The “MMP assays efficacy (%) Rat Hepatocytes” value in the series with rat primary hepatocytes [3] was -75±11%.

`O=C1CN(/N=C/c2ccc(-c3ccc([N+](=O)[O-])cc3)o2)C(O)=N1` [Dantrolene sodium]: the IC50 in the series on HepG2 cells [1] is 3.46 µM; in the series with HepG2 cells [2] (setting [5]), 4.35 ± 1.73 µM; in the series on rat primary hepatocytes [4], 15.5 ± 1.78 µM. Besides, in the series with HepG2 cells [1], the Emax amounted to 73%. Further, the “MMP assays efficacy (%) qHTS-HepG2” value in the series with HepG2 cells [2] is -85±8%. For the same compound, the “MMP assays efficacy (%) Rat Hepatocytes” value in the series on rat primary hepatocytes [3] is reported as -108±32%.

In the case of `CN1C(=O)[C@@H](NC(=O)c2cc3ccccc3[nH]2)N=C(c2ccccc2)c2ccccc21` [Devazepide], the IC50 in the series on HepG2 cells [1] was 10.9 µM; with HepG2 cells [2] (setting [5]), 12.5 ± 5.62 µM; in the series on rat primary hepatocytes [4], 15.6 ± 7.19 µM. The Emax with HepG2 cells [1] amounted to 63%. For the same compound, the “MMP assays efficacy (%) qHTS-HepG2” value with HepG2 cells [2] is reported as -81±7%. Also, the “MMP assays efficacy (%) Rat Hepatocytes” value with rat primary hepatocytes [3] is given as -50±14%.

Turning to `O=C1c2ccccc2C(=O)c2c1ccc(O)c2O` [Alizarin], the IC50 in the series with HepG2 cells [1] is 13.8 µM; in the series with HepG2 cells [2] (setting [5]) it was 11 ± 1.41 µM; in the series on rat primary hepatocytes [4], 11.9 ± 7.79 µM. For the same compound, in the series on HepG2 cells [1], the Emax amounted to 94%. For the same compound, the “MMP assays efficacy (%) qHTS-HepG2” value with HepG2 cells [2] is listed as -101±8%. Moreover, the “MMP assays efficacy (%) Rat Hepatocytes” value in the series with rat primary hepatocytes [3] is recorded as -80±8%.

Turning to `C[C@H]1O[C@@H](O[C@H]2[C@@H](O)C[C@H](O[C@H]3[C@@H](O)C[C@H](O[C@H]4CC[C@@]5(C)[C@H](CC[C@@H]6[C@@H]5CC[C@]5(C)[C@@H](C7=CC(=O)OC7)CC[C@]65O)C4)O[C@@H]3C)O[C@@H]2C)C[C@H](O)[C@@H]1O` [Digitoxin], in the series on HepG2 cells [1], the IC50 came out at 0.06 µM and the Emax came to 97%. The “MMP assays efficacy (%) qHTS-HepG2” value in the series on HepG2 cells [2] was -77±6%. In addition, in the series with HepG2 cells [2] (setting [5]), the IC50 is 0.16 ± 0.05 µM. Further, the “MMP assays efficacy (%) Rat Hepatocytes” value in the series with rat primary hepatocytes [3] was “inactive”. Further, the “MMP assays IC50 (µM) Rat Hepatocytes” value with rat primary hepatocytes [4] is “inactive”.

As for `CC1(C)CCC(C)(C)c2cc(NC(=O)c3ccc(C(=O)O)cc3)ccc21` [Tamibarotene], the IC50 in the series on HepG2 cells [1] is 13.8 µM; in the series on HepG2 cells [2] (setting [6]), 25.7 ± 1.05 µM; in the series on rat primary hepatocytes [4] it was 9.06 ± 6.66 µM. Further, in the series with HepG2 cells [1], the Emax came out at 95%. For the same compound, the “MMP assays efficacy (%) qHTS-HepG2” value in the series with HepG2 cells [2] is -128±10%. Also, in the series on rat primary hepatocytes [3], the “MMP assays efficacy (%) Rat Hepatocytes” value was -75±57%.

`Cc1ccccc1C(=O)Nc1ccc(C(=O)N2CCCC(O)c3cc(Cl)ccc32)c(C)c1` (stereo not drawn) [Tolvaptan]: the figures for the IC50 in the series with HepG2 cells [1], with HepG2 cells [2] (setting [6]) and in the series on rat primary hepatocytes [4] were 19.4 µM, 17.4 ± 8.01 µM and 17.4 ± 2 µM, respectively. In addition, in the series on HepG2 cells [1], the Emax is 50%. For the same compound, the “MMP assays efficacy (%) qHTS-HepG2” value in the series on HepG2 cells [2] is -65±11%. The “MMP assays efficacy (%) Rat Hepatocytes” value in the series on rat primary hepatocytes [3] is reported as -67±60%.

In the case of `CCc1ccccc1O` [Compound 2-Ethylphenol], in the series on HepG2 cells [1], the IC50 is 15.8 µM and the Emax amounted to 72%. Further, in the series with HepG2 cells [2], the “MMP assays IC50 (µM) qHTS-HepG2” value was “inactive” and the “MMP assays efficacy (%) qHTS-HepG2” value is “inactive”. Also, in the series on rat primary hepatocytes [3], the “MMP assays efficacy (%) Rat Hepatocytes” value is “inactive”. Further, the “MMP assays IC50 (µM) Rat Hepatocytes” value with rat primary hepatocytes [4] is “inactive”.

For the compound `Cc1cc(C(F)(C(F)(F)F)C(F)(F)F)ccc1NC(=O)c1cccc(I)c1C(=O)NC(C)(C)CS(C)(=O)=O` [Flubendiamide], the IC50 with HepG2 cells [1] is 25.3 µM; in the series with HepG2 cells [2] (setting [6]) it was 18.7 ± 2.59 µM; in the series with rat primary hepatocytes [4] it was 12.8 ± 8.15 µM. The Emax in the series with HepG2 cells [1] was 94%. Moreover, the “MMP assays efficacy (%) qHTS-HepG2” value in the series on HepG2 cells [2] is reported as -87±14%. Besides, the “MMP assays efficacy (%) Rat Hepatocytes” value in the series with rat primary hepatocytes [3] is reported as -80±23%.

Regarding `Cc1ccc2ccc3cccc4ccc1c2c34` [Compound 1-Methylpyrene], the IC50 was 39.8 µM with HepG2 cells [1], 43.2 ± 4.99 µM in the series on HepG2 cells [2] (setting [5]) and 32.2 ± 7.36 µM with rat primary hepatocytes [4]. For the same compound, the Emax in the series on HepG2 cells [1] was determined as 112%. For the same compound, the “MMP assays efficacy (%) qHTS-HepG2” value in the series with HepG2 cells [2] is on record as -112±32%. For the same compound, in the series with rat primary hepatocytes [3], the “MMP assays efficacy (%) Rat Hepatocytes” value is on record as -57±10%.

For the compound `CN(C)c1ccc(C(=C2C=CC(=[N+](C)C)C=C2)c2ccc(N(C)C)cc2)cc1` [Gentian violet], the IC50 was 0.35 µM in the series on HepG2 cells [1], 0.08 ± 0.04 µM with HepG2 cells [2] (setting [6]) and 1.34 ± 0.11 µM with rat primary hepatocytes [4]. Also, the Emax in the series on HepG2 cells [1] came to 92%. For the same compound, the “MMP assays efficacy (%) qHTS-HepG2” value with HepG2 cells [2] is on record as -92±4%. For the same compound, in the series on rat primary hepatocytes [3], the “MMP assays efficacy (%) Rat Hepatocytes” value is given as -70±14%.

Consider `C#C[C@]1(O)CC[C@H]2[C@@H]3CCc4cc(O)ccc4[C@H]3CC[C@@]21C` [Compound 17alpha-Ethinylestradiol], for which the IC50 with HepG2 cells [1] is 15.5 µM; in the series on HepG2 cells [2] (setting [5]), 19.1 ± 5.99 µM; in the series with rat primary hepatocytes [4], 18.4 ± 1.5 µM. The Emax with HepG2 cells [1] came out at 107%. The “MMP assays efficacy (%) qHTS-HepG2” value in the series with HepG2 cells [2] was -95±9%. Also, in the series with rat primary hepatocytes [3], the “MMP assays efficacy (%) Rat Hepatocytes” value is reported as -42±1%.

As to `Clc1ccc(C(c2ccc(Cl)cc2)C(Cl)(Cl)Cl)cc1` [p,p'-DDT], in the series on HepG2 cells [1], the concentration for half-maximal inhibition (IC50) turned out to be 30.8 µM and the Emax worked out at 69%. Besides, the “MMP assays efficacy (%) qHTS-HepG2” value with HepG2 cells [2] is on record as -99±12%. In addition, the IC50 in the series with HepG2 cells [2] (setting [6]) is 24.3 ± 2.74 µM. Also, the “MMP assays efficacy (%) Rat Hepatocytes” value in the series with rat primary hepatocytes [3] was “inactive”. Moreover, the “MMP assays IC50 (µM) Rat Hepatocytes” value in the series on rat primary hepatocytes [4] is “inactive”.

`Clc1ccccc1-c1ccccc1Cl` [2,2'-Dichlorobiphenyl]: in the series on HepG2 cells [1], the IC50 amounted to 63.1 µM and the Emax turned out to be 76%. Further, the “MMP assays efficacy (%) qHTS-HepG2” value with HepG2 cells [2] is -71±13%. The IC50 with HepG2 cells [2] (setting [5]) is 31.1 ± 12.3 µM. In addition, in the series on rat primary hepatocytes [3], the “MMP assays efficacy (%) Rat Hepatocytes” value was “inactive”. In the series with rat primary hepatocytes [4], the “MMP assays IC50 (µM) Rat Hepatocytes” value is “inactive”.

Turning to `CC(=O)O[C@H]1C[C@H](O[C@H]2[C@@H](O)C[C@H](O[C@H]3[C@@H](O)C[C@H](OC4CC[C@@]5(C)[C@H](CC[C@@H]6[C@@H]5CC[C@]5(C)[C@@H](C7=CC(=O)OC7)CC[C@]65O)C4)O[C@@H]3C)O[C@@H]2C)O[C@H](C)[C@H]1O[C@@H]1O[C@H](CO)[C@@H](O)[C@H](O)[C@H]1O` (stereo partly drawn) [Lanatoside A], in the series with HepG2 cells [1], the IC50 came to 0.14 µM and the Emax turned out to be 91%. In addition, the “MMP assays efficacy (%) qHTS-HepG2” value with HepG2 cells [2] is reported as -69±2%. Also, the IC50 in the series on HepG2 cells [2] (setting [6]) was 0.43 ± 0.04 µM. Also, the “MMP assays efficacy (%) Rat Hepatocytes” value with rat primary hepatocytes [3] is “inactive”. Besides, in the series with rat primary hepatocytes [4], the “MMP assays IC50 (µM) Rat Hepatocytes” value is “inactive”.
